The source of these data is PMC12192500, “Selective Dual Inhibition of TNKS1 and CDK8 by TCS9725 Attenuates STAT1/β-Catenin/TGFβ1 Signaling in Renal Cancer” (Current Issues in Molecular Biology, 2025).

Structures are written as SMILES.

The target in assay [1] is T1, TNKS1 (Tankyrase 1, PARP5A) (Homo sapiens, UniProt O95271).
T1 construct: gene TNKS
The experiment in a line: TNKS1 colorimetric PARP activity assay kit (BPS #[…]), histone-coated plate. It counts as biochemical.

Assay [2] concerns the target CDK8 (Cyclin-dependent kinase 8) (Homo sapiens, UniProt P49336). The experiment in a line: luminescence-based kinase assay. It counts as biochemical.

CDK8 (Cyclin-dependent kinase 8), sequence (P49336 whole entry): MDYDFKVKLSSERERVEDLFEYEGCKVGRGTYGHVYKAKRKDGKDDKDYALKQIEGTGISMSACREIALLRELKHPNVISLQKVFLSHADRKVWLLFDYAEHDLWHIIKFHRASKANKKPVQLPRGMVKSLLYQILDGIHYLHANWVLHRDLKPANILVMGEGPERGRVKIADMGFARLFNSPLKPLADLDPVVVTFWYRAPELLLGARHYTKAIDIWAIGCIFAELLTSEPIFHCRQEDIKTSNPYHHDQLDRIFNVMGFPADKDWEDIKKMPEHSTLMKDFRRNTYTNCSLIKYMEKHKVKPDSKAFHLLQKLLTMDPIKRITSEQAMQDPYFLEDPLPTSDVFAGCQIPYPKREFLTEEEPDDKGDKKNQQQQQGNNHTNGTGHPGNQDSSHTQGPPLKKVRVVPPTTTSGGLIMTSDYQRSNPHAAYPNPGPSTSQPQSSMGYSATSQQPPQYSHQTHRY
T1 sequence (O95271 whole entry): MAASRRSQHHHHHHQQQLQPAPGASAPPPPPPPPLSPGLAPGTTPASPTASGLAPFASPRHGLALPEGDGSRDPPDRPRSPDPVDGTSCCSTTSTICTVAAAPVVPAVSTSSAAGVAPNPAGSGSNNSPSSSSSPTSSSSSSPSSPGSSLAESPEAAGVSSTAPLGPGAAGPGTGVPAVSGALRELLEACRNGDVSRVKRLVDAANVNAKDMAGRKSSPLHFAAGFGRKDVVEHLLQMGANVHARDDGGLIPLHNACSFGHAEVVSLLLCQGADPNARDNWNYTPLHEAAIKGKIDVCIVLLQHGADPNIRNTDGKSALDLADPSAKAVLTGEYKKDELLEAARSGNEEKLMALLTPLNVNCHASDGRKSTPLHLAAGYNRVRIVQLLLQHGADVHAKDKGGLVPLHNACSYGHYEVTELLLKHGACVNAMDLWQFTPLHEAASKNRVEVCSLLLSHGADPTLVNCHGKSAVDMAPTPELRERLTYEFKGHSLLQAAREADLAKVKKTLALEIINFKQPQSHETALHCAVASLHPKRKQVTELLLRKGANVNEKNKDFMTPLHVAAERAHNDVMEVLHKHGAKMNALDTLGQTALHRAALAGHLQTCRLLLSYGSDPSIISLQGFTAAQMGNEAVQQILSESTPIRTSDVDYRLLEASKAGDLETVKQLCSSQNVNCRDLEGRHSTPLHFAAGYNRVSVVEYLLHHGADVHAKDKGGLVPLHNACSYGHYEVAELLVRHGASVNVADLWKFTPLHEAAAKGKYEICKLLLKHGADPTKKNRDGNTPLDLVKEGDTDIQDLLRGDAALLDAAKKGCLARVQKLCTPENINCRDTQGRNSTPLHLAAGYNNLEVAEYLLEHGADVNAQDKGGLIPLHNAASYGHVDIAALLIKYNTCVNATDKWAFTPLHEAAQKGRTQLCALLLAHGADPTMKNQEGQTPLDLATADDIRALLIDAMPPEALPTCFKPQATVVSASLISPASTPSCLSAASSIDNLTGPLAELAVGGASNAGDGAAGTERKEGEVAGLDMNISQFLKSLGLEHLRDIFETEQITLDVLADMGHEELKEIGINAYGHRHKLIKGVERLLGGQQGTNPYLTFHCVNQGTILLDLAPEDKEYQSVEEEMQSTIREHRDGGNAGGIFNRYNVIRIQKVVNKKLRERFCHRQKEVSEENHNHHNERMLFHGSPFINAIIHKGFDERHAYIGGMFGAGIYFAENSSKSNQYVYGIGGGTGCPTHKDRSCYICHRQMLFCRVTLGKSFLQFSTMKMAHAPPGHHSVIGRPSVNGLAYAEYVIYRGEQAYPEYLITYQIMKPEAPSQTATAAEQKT

As to `O=c1cccc(-c2ccc(Cl)cc2)o1` [TCS9725, 6-(4-chlorophenyl)-2H-pyran-2-one], the IC50 in assay [1] came out at 243 nM; in assay [2], 404 nM.

A word on the IC50: it is the midpoint of a concentration-inhibition curve. A lower IC50 goes with higher potency.
